Consider two compounds from US11187660B2, “Fluorescent probes for monitoring voltage by photo-induced electron transfer” (The Regents of the University of California, priority 2011, dated 2021).

“And” between values parts separate entries of the source, which are not always exact repeats. Equal entries are not always repeated.

In one series the test system is HEK cells. In words: Bleach rate in HEK cells. As to conditions: for bleach rate: HEK cells, 7 W/cm^2; for bleach rate, fold smaller than di-4-ANEPPS: identical illumination conditions. The series is classed as cell-based, human. As to the method:
The dibutyl (VFx.4.Cl) dyes stain the cell membranes of HEK293 cells when loaded at a concentration of 2 μM for 15 min at 37° C. in buffer with 0.1% DMSO as cosolvent (FIG. 9A, and FIG. 10). […] The bleach rates of the probes were tested in HEK cells and compared with di-4-ANEPPS. The bleach rates for VF1.4.Cl, VF2.4.Cl, and VF2.1.Cl at 7 W/cm^2 were measured to be 3.9±0.1×10^−2 s^−1, 1.8±0.1×10^−2 s^−1, and 8.0±0.1×10^−3 s^−1, respectively.
For studies to determine excitation sensitivity of dyes, illumination was provided by a Polychrom IV light source (T.I.L.L. Photonics GMBH) with a mechanical shutter (Uniblitz VS25). For all other studies, light was provided by an Xenon arc lamp powered by an Optiquip Power supply (Optiquip) with a mechanical shutter controlled by a Lambda 10-2 controller (Sutter). Light from the Xenon arc lamp was filtered through a 480 nm filter (30 nm bandpass, Chroma), a 510 nm dichroic (Semrock), a 530 nm emission filter (50 nm bandpass, Semrock), and focused through a 40×/1.4 oil objective. For di-4-ANEPPS imaging, a 625 nm emission filter with a 50 nm bandpass was used. Bleaching studies used identical illumination conditions (480/30 nm excitation, 510 nm dichroic, 7 W/cm^2 output) and were corrected by normalizing for the extinction coefficient at the excitation wavelengths (465-495 nm).

The test system of another series is HEK293 cells. As to the kind of experiment: Voltage sensitivity of fluorescence in voltage-clamped HEK cells (whole-cell recording). The class given is cell-based, human. As to conditions: for voltage sensitivity ΔF/F per 100 mV: HEK293 cells voltage-clamped at −60 mV holding potential. The source says: Membrane voltage of cells loaded with VF1.4.Cl or VF2.4.Cl were controlled by making tight-seal whole-cell recordings. Cells were maintained at a holding potential of −60 mV and stepped for 50 ms to various depolarizing and hyperpolarizing potentials (FIG. 5A), while simultaneously acquiring epifluorescence images. For both sensors, depolarizing steps result in fluorescence increases while hyperpolarizing steps decrease fluorescence intensity, in keeping with our proposed mechanism. […] For di-4-ANEPPS, typical values are 0.08-0.12% per mV. The larger changes for VF1.4.Cl and VF2.4.Cl compared to di-4-ANEPPS are somewhat expected, since a PeT-based voltage sensor samples the entire emission spectrum, whereas electrochromic dyes are limited to the edge of the spectrum only. For both probes, the voltage responses are linear across the physiologically relevant ranges of −100 mV to +100 mV. To assess the speed of the optical response to voltage, VF2.4.Cl signals were monitored in response to voltage steps of 100 mV from a holding potential of −60 mV.
We characterized the voltage sensitivity of all three indicators by making tight-seal whole-cell recordings of HEK293 cells stained with the VF sensors. Cells were voltage-clamped at −60 mV holding potential and sequentially stepped to depolarizing and hyperpolarizing potentials at 20-mV increments (FIG. 9B). For all three dyes, depolarizing steps produced fluorescence increases, whereas hyperpolarizing steps produced fluorescence decreases, in keeping with the proposed PeT mechanism. The fluorescence response is linear over the range of −100 mV to +100 mV (FIG. 9C), with voltage sensitivities ΔF/F per 100 mV of 20±1% for VF1.4.Cl and 25±1% for VF2.4.Cl. This statistically significant increase in voltage sensitivity (P<0.05, two-tailed Student t test) is expected upon increasing the length of the molecular wire, and is 2.5- to 4-times more sensitive than di-4-ANEPPS, which, in our hands, gives sensitivities of between 6% and 10% ΔF/F per 100 mV. […] To investigate the speed of response of VF probes, we again made whole-cell recordings of cells stained with VF2.4.Cl, applied 100-mV depolarizing steps from a holding potential of −60 mV, and recorded both the electrophysiological signals and the optical signals.
Electrophysiological recordings of HEK293 cells and cultured neurons were performed with an Axopatch 200A or 200B amplifier (Molecular Devices) at room temperature. The signals were digitized with Digidata 1332A and recorded with pCLAMP 9 software (Molecular Devices) on a PC. Analysis of electrophysiological data was done with AxoGraph X (AxoGraphX), pCLAMP 9, and/or ClampFit (Molecular Devices). For most experiments the extracellular solution consisted of (in mM) 145 NaCl, 20 glucose, 10 HEPES, 3 KCl, 2 CaCl2, 1 MgCl2 (pH 7.35, 310 mOsm). The intracellular solution contained (in mM) 115 potassium gluconate, 10 BAPTA tetrapotassium salt, 10 HEPES, 5 NaCl, 10 KCl, 2 ATP disodium salt, 0.3 GTP trisodium salt (pH 7.25, 290 mOsm).
For studies to determine excitation sensitivity of dyes, illumination was provided by a Polychrom IV light source (T.I.L.L. Photonics GMBH) with a mechanical shutter (Uniblitz VS25). For all other studies, light was provided by an Xenon arc lamp powered by an Optiquip Power supply (Optiquip) with a mechanical shutter controlled by a Lambda 10-2 controller (Sutter). […]

Regarding `CN(C)c1ccc(/C=C/c2ccc(/C=C/c3ccc(-c4c5cc(Cl)c(=O)cc-5oc5cc(O)c(Cl)cc45)c(S(=O)(=O)O)c3)cc2)cc1` [VF2.1.Cl, 5-(4-(4-(dimethyllamino)styryl)styryl)-2-(2,7-dichloro-6-hydroxy-3-oxo-3H-xanthen-9-yl)benzenesulfonic acid], in the series on HEK cells, the bleach rate is 8.0±0.1×10^−3 s^−1 and the “bleach rate, fold smaller than di-4-ANEPPS” value is “ninefold smaller”. For the same compound, the “voltage sensitivity ΔF/F per 100 mV” value in the series with HEK293 cells was determined as 27±1%.

Consider `CCCCN(CCCC)c1ccc(/C=C/c2ccc(/C=C/c3ccc(-c4c5cc(Cl)c(=O)cc-5oc5cc(O)c(Cl)cc45)c(S(=O)(=O)O)c3)cc2)cc1` [VF2.4.Cl, 5-(4-(4-(dibutylamino)styryl)styryl)-2-(2,7-dichloro-6-hydroxy-3-oxo-3H-xanthen-9-yl)benzenesulfonic acid], for which, in the series with HEK cells, the bleach rate is listed as 1.8±0.1×10^−2 s^−1 and the “bleach rate, fold smaller than di-4-ANEPPS” value is listed as “four-”. Besides, the “voltage sensitivity ΔF/F per 100 mV” value in the series with HEK293 cells is given as 25±1%. In addition, in the series on HEK293 cells (HEK cells, holding potential −60 mV), the “sensitivity, fractional fluorescence change (ΔF/F) versus change in membrane potential” value was 0.25±0.01 % per mV and 0.25 % per mV.
